{"source": "paper PMC6359543", "about": "“Efficacy of Azatyrosine-Phenylbutyric Hydroxamides, a Histone Deacetylase Inhibitor, on Chemotherapy-Induced Gastrointestinal Mucositis” (International Journal of Molecular Sciences, 2019)", "tested_on": "male ICR mice", "assay": "Micronucleus test", "settings": "mouse, in vivo", "description": "Male ICR mice (n = 5) were administered AzP orally by gavage, at doses of 5, 50, and 500 mg/kg body weight. […] At 24, 48, and 72 h after dosing, 2-μL blood samples were collected from the tail vein onto a slide stained with acridine orange (40 μg/mL). The ratio (%) of polychromatic erythrocytes (PCEs) to total erythrocytes was determined using fluorescence microscopy. In addition, the frequency of micronucleated polychromatic erythrocytes (MNPCEs; ‰) was counted to a total of 1000 erythrocytes or PCEs per animal."}
{"compound": "CC(C)(C)OC(=O)NC(Cc1ccc(OCc2ccccc2)cn1)C(=O)Nc1ccc(CCCC(=O)NO)cc1", "note": "(stereo not shown) [AzP, Azatyrosine-phenylbutyric hydroxamides]", "values": [{"measurement": "Micronucleus Test result", "value": "Negative"}]}
